Measurements reported in ChEMBL document CHEMBL5113385, “Natural products and synthetic analogues against HIV: A perspective to develop new potential anti-HIV drugs” (Eur J Med Chem, 2022).
One block for each compound: values may come before it.

Key:
MT4 = assay: Cytotoxicity against human MT4 cells assessed as reduction in cell viability incubated for 5 days by MTT assay; assay type: functional; conditions: MT4, 120 h, time 5 day
[1] = tested on: Human immunodeficiency virus 1; assay: Antiviral activity against HIV-1 E138K mutant infected in human MT4 cells assessed as reduction in viral replication incubated for 5 days by MTT assay; assay type: functional, organism-based; conditions: Human immunodeficiency virus 1, E138K mutant, MT4, 120 h
[2] = tested on: Human immunodeficiency virus 1; assay: Antiviral activity against HIV-1 IIIB infected in human MT4 cells assessed as reduction in virus-induced cytopathic effect incubated for 5 days by MTT assay; assay type: functional, organism-based; conditions: Human immunodeficiency virus 1, IIIB, MT4, 120 h
[3] = Selectivity index, ratio of CC50 for human MT4 cells to EC50 for HIV-1 IIIB infected in human MT4 cells; assay type: toxicity, cell-based; conditions: MT4 cells (uninfected, and infected with HIV-1 IIIB), read-out: Ratio CC50/EC50
[4] = tested on: Human immunodeficiency virus 1; assay: Antiviral activity against wild-type HIV-1 IIIB infected in human C8166 cells assessed as reduction in virus-induced cytopathic effect incubated for 3 days by MTT assay; assay type: functional, organism-based; conditions: Human immunodeficiency virus 1, IIIB, C8166, 72 h
[5] = Selectivity index, ratio of CC50 for human C8166 cells to EC50 for HIV IIIB infected in human C8166 cells; assay type: toxicity, cell-based; conditions: C8166 cells (uninfected, and infected with HIV IIIB), read-out: Ratio CC50/EC50
[6] = Selectivity index, ratio of CC50 for human MT2 cells to EC50 for HIV-1 IIIB infected in human MT2 cells; assay type: toxicity, cell-based; conditions: MT2 cells (uninfected, and infected with HIV-1 IIIB), read-out: Ratio CC50/EC50
[7] = tested on: Human immunodeficiency virus 1; assay: Antiviral activity against HIV-1 IIIB infected in human MT2 cells assessed as reduction in viral replication; assay type: functional, organism-based; conditions: Human immunodeficiency virus 1, IIIB
[8] = tested on: Human immunodeficiency virus 1; assay: Antiviral activity against HIV-1 NL4-3 infected in human TZM-bl cells assessed as reduction in virus-induced cytopathic effect incubated for 2 days by Bright Glo assay; assay type: functional, organism-based; conditions: Human immunodeficiency virus 1, NL4-3, TZM-bl, 48 h
[9] = Inhibition of HIV-1 gp41 six-helix bundle formation incubated with N36 for 30 mins followed by incubation with C34 peptide for 30 mins by sandwich ELISA; assay type: functional, Human immunodeficiency virus 1

Structure (SMILES): N#Cc1ccc(Nc2nccc(/C(=N\O)c3ccc(-c4ccc(F)cc4)cc3F)n2)cc1
CC50 (MT4): > 292000 nM
IC50 [1]: 27 nM
IC50 [2]: 12100 nM
selectivity ratio [3]: > 24100

Structure (SMILES): CCc1c(CC2CCCCC2)nc(SCc2cc(-c3ccc(O)cc3)[nH]n2)[nH]c1=O
IC50 [4]: 3.8 nM
selectivity ratio [5]: 25.5

Structure (SMILES): Cc1cc(/C=C2\SC(=S)N(Cc3ccccc3C(F)(F)F)C2=O)c(C)n1-c1ccc(O)c(C(=O)O)c1
IC50 [9]: 23000 nM

Further lines, with some results ahead:

IC50 [7]: 148 nM
Structure (SMILES): Cc1cccc2cc(/C=C3\NC(=O)N(Cc4ccccc4)C3=O)c(Cl)nc12
selectivity ratio [6]: 117

IC50 [8]: 2130 nM
Structure (SMILES): COc1ccc(N(C)C(=O)[C@H](Cc2cc(F)cc(F)c2)NC(=O)c2cccc(-c3cn(Cc4ccc([N+](=O)[O-])cc4)nn3)c2)cc1
